Converted amounts (≈) assume the structure as drawn.
Tests used:
[1] = test system: Escherichia coli MDR clinical isolate (stool); test: Antibiotic sensitivity, Kirby Bauer
[2] = test system: Pseudomonas aeruginosa MDR clinical isolate (sputum); test: Antibiotic sensitivity, Kirby Bauer
[3] = test system: MRSA clinical isolate (pus); test: Antibiotic sensitivity, Kirby Bauer
S. aureus ATCC 6538 P = test: Zone of inhibition, agar well; settings: antibiotic amount (1-200 mcg)
B. subtilis = test: Zone of inhibition, agar well; settings: antibiotic amount (1-200 mcg)
MRSA 1 = test: Zone of inhibition, agar well; settings: antibiotic amount (1-200 mcg)
MRSA 2 = test: Zone of inhibition, agar well; settings: antibiotic amount (1-200 mcg)
S.typhi = test: Zone of inhibition, agar well; settings: antibiotic amount (5-200 mcg)
E. coil = test: Zone of inhibition, agar well; settings: E.coli; antibiotic amount (5-200 mcg)
Ps. Aeruginosa = test: Zone of inhibition, agar well; settings: antibiotic amount (5-200 mcg)
S. boydii = test: MIC/MBC broth microdilution; assay type: cell-based, Shigella boydii; settings: Shigella boydii, S. boydii
E. aerogenes = test: MIC/MBC broth microdilution; assay type: cell-based, Enterobacter aerogenes; settings: Klebsiella aerogenes; E. aerogenes; read-out: MIC
S. typhimurium = test: MIC/MBC broth microdilution; assay type: cell-based; settings: Salmonella enterica, S. typhimurium
S arizona = test: MIC/MBC broth microdilution; assay type: cell-based, Salmonella arizona; settings: Salmonella
P. aeruginosa = test: MIC/MBC broth microdilution; assay type: cell-based, Pseudomonas aeruginosa; settings: Pseudomonas aeruginosa
S. pneumoniae = test: MIC/MBC broth microdilution; assay type: cell-based; settings: Streptococcus pneumoniae
S. pyogenes = test: MIC/MBC broth microdilution; assay type: cell-based, Streptococcus pyogenes; settings: Streptococcus pyogenes
E. cloacae = test: MIC/MBC broth microdilution; assay type: cell-based; settings: Enterobacter cloacae, read-out: MIC
K. pneumoniae = test: MIC/MBC broth microdilution; assay type: cell-based, Klebsiella pneumoniae; settings: Klebsiella pneumoniae, read-out: MIC
S. aureus = test: MIC/MBC broth microdilution; assay type: cell-based, Staphylococcus aureus; settings: Staphylococcus aureus
S. mutans = test: MIC/MBC broth microdilution; assay type: cell-based, Streptococcus mutans; settings: Streptococcus mutans
S. faecalis = test: MIC/MBC broth microdilution; assay type: cell-based, Streptococcus faecalis; settings: Enterococcus faecalis
E. coli = test: MIC/MBC broth microdilution; assay type: cell-based, Escherichia coli; settings: Escherichia coli
S gordonii = test: MIC/MBC broth microdilution; assay type: cell-based, Streptococcus gordonii; settings: Streptococcus gordonii
K. oxytoca = test: MIC/MBC broth microdilution; assay type: cell-based; settings: Klebsiella oxytoca; K. oxytoca; read-out: MIC

In the case of `CC(C)(O/N=C(\C(=O)N[C@@H]1C(=O)N2C(C(=O)[O-])=C(C[n+]3ccccc3)CS[C@H]12)c1csc(N)n1)C(=O)O` [ceftazidime], the “Zone size (mm)” value ([1]; E.c, Kirby-Bauer antibiotic disc) is reported as 10 mm, the resistance of isolate ([1]; gram-negative isolate E. coli) is reported as “resistance” and the “Zone size (mm)” value ([2]; Ps., Kirby-Bauer antibiotic disc) is reported as 16 mm. For the same compound, the resistance of isolate ([2]; gram-negative isolate Pseudomonas) was “resistance” and the resistance of isolate [3] was “resistant”.
For `CC[C@H]1OC(=O)[C@H](C)[C@@H](O[C@H]2C[C@@](C)(OC)[C@@H](O)[C@H](C)O2)[C@H](C)[C@@H](O[C@@H]2O[C@H](C)C[C@H](N(C)C)[C@H]2O)[C@](C)(O)C[C@@H](C)/C(=N\OCOCCOC)[C@H](C)[C@@H](O)[C@]1(C)O` [Roxythromycin], the “zone of inhibition, antibiotics” value (S. aureus ATCC 6538 P) was “Clear”, the “zone of inhibition, antibiotics” value (B. subtilis) was 20 mm and the “zone of inhibition, antibiotics” value (MRSA 1) was 1.0 mm. The “zone of inhibition, antibiotics” value (MRSA 2) was 12 mm.
In the case of `O=C(N[C@H](CO)[C@H](O)c1ccc([N+](=O)[O-])cc1)C(Cl)Cl` [Chloramphenicol], the “zone of inhibition, antibiotics” value (S.typhi) is reported as 23 mm, the “zone of inhibition, antibiotics” value (E. coil) is reported as 22 mm and the “zone of inhibition, antibiotics” value (Ps. Aeruginosa) is reported as “No inhibition”.
With `CCN1CCN(C(=O)N[C@@H](C(=O)N[C@@H]2C(=O)N3[C@@H]2SC(C)(C)[C@@H]3C(=O)O)c2ccccc2)C(=O)C1=O` [Piperacillin] the “zone of inhibition, antibiotics” value (S.typhi) was 16 mm and the “zone of inhibition, antibiotics” value (E. coil) was 22 mm.
With `CC[C@H]1OC(=O)[C@H](C)[C@@H](O[C@H]2C[C@@](C)(OC)[C@@H](O)[C@H](C)O2)[C@H](C)[C@@H](O[C@@H]2O[C@H](C)C[C@H](N(C)C)[C@H]2O)[C@](C)(O)C[C@@H](C)C(=O)[C@H](C)[C@@H](O)[C@]1(C)O` [Erythromycin] the MBC (S. boydii; read-out: MBC) was over 5 µg/mL, the MIC (S. boydii; read-out: MIC) was 5 µg/mL (≈ 6.81 µM) and the MIC (E. aerogenes) was over 5 µg/mL. It also gave an MBC (S. typhimurium; read-out: MBC) of over 5 µg/mL, an MIC (S. typhimurium; read-out: MIC) of 5 µg/mL (≈ 6.81 µM) and an MBC (S arizona; read-out: MBC) of over 5 µg/mL. The MIC (S arizona; read-out: MIC) was 4.17 µg/mL (≈ 5.68 µM), the MBC (P. aeruginosa; read-out: MBC) was over 5 µg/mL and the MIC (P. aeruginosa; read-out: MIC) was 2.5 µg/mL (≈ 3.41 µM). For the same compound, the MBC (S. pneumoniae; read-out: MBC) was 0.004 µg/mL (≈ 0.00545 µM), the MIC (S. pneumoniae; read-out: MIC) was 0.002 µg/mL (≈ 0.00273 µM) and the MBC (S. pyogenes; read-out: MBC) was 0.019 µg/mL (≈ 0.0259 µM). The MIC (S. pyogenes; read-out: MIC) was 0.003 µg/mL (≈ 0.00409 µM), the MIC (E. cloacae) was over 5 µg/mL and the MIC (K. pneumoniae) was over 5 µg/mL. It also gave an MBC (S. aureus; read-out: MBC) of over 5 µg/mL, an MIC (S. aureus; read-out: MIC) of 0.039 µg/mL (≈ 0.0531 µM) and an MBC (S. mutans; read-out: MBC) of 0.019 µg/mL (≈ 0.0259 µM). For the same compound, the MIC (S. mutans; read-out: MIC) was 0.009 µg/mL (≈ 0.0123 µM), the MBC (S. faecalis; read-out: MBC) was 1.25 µg/mL (≈ 1.7 µM) and the MIC (S. faecalis; read-out: MIC) was 0.009 µg/mL (≈ 0.0123 µM). For the same compound, the MBC (E. coli; read-out: MBC) was over 5 µg/mL, the MIC (E. coli; read-out: MIC) was 5 µg/mL (≈ 6.81 µM) and the MBC (S gordonii; read-out: MBC) was 0.019 µg/mL (≈ 0.0259 µM). The MIC (S gordonii; read-out: MIC) was 0.005 µg/mL (≈ 0.00681 µM) and the MIC (K. oxytoca) was over 5 µg/mL.
`CCn1cc(C(=O)O)c(=O)c2cc(F)c(N3CCN(C)CC3)cc21` [Peflofloxacin] was tested, and the “zone of inhibition, antibiotics” value (S. aureus ATCC 6538 P) was 30 mm, the “zone of inhibition, antibiotics” value (MRSA 1) was 11 mm and the “zone of inhibition, antibiotics” value (S.typhi) was “clear”. The “zone of inhibition, antibiotics” value (E. coil) was “Clear” and the “zone of inhibition, antibiotics” value (MRSA 2) was 13 mm.
With `O=C(O)c1cn(C2CC2)c2cc(N3CCNCC3)c(F)cc2c1=O` [Ciprofloxacin] the “zone of inhibition, antibiotics” value (S. aureus ATCC 6538 P) was 28 mm, the “zone of inhibition, antibiotics” value (MRSA 1) was 14 mm and the “zone of inhibition, antibiotics” value (S.typhi) was 25 mm. The “zone of inhibition, antibiotics” value (E. coil) was 29 mm and the “zone of inhibition, antibiotics” value (MRSA 2) was 14 mm.
With `CO/N=C(\C(=O)N[C@@H]1C(=O)N2C(C(=O)O)=CCS[C@H]12)c1csc(N)n1` [Ceftizoxime] the “zone of inhibition, antibiotics” value (S.typhi) was 15 mm, the “zone of inhibition, antibiotics” value (E. coil) was 18 mm and the “zone of inhibition, antibiotics” value (Ps. Aeruginosa) was “No inhibition”.
`CC1=C(C(=O)O)N2C(=O)[C@@H](NC(=O)[C@H](N)c3ccccc3)[C@H]2SC1` [Cephalexin] was tested, and the “zone of inhibition, antibiotics” value (S. aureus ATCC 6538 P) was “Clear”, the “zone of inhibition, antibiotics” value (B. subtilis) was “Clear” and the “zone of inhibition, antibiotics” value (MRSA 1) was 1.0 mm. The “zone of inhibition, antibiotics” value (MRSA 2) was 0.8 mm.

Source: patent US20110262556A1, “SILVER/WATER, SILVER GELS AND SILVER-BASED COMPOSITIONS; AND METHODS FOR MAKING AND USING THE SAME” (AMERICAN SILVER, LLC, priority 2005, published 2011)
